Test results from a melting point compilation (Tetko et al.; mined from patent text by program, amines drawn as free bases though some values may be those of a salt).

SMILES | melting point
NS(=O)(=O)c1cc(C=O)cs1 | 146 to 149 °C
O=C1C(=O)c2ccccc2C2=C1SCC1(CCN(CC(O)Cc3ccc(Cl)cc3)CC1)O2 (centres undefined) | 195 to 196 °C
COc1ccc2c(c1)CCN1CCC(Nc3ccc(NC(C)=O)cc3)CC21 (centres undefined) | 219 to 221 °C
CCCCCCC(C)Oc1ccc(C(=O)O)cc1C#N (centres undefined) | 98.1 to 99.9 °C
CC(C)(C)OC(=O)Nc1ccc(C#Cc2ccccc2Cl)cc1N | 120 to 122 °C
Oc1nc(Cc2ccccc2)nc(O)c1-c1ccccc1 | 337 °C
OCCNc1c(Br)cnc2cc(Cl)ccc12 | 169 to 170 °C
COc1c(N2CC(C)C(NC3CC3)C(C)C2)c(F)c(N)c2c(=O)c(C(=O)O)cn(C3CC3)c12 (centres undefined) | 248 °C
COCC1CN(c2ccc3cc(O)ccc3c2)C(=O)O1 (centres undefined) | 190 to 191 °C
CN(NC(=O)c1c(F)cccc1Cl)S(C)(=O)=O | 135 to 136 °C
CC(C)(C)c1ccc(C=C(SC(=Cc2ccc(C(C)(C)C)cc2)S(=O)(=O)c2ccccc2)S(=O)(=O)c2ccccc2)cc1 | 57 to 58 °C
CC1=C(C(=O)Nc2ccccc2)SC2=NCCN21 | 204 to 205 °C
CC1(c2ccc(OCc3ccccc3)c(C3CO3)c2)OCCO1 (centres undefined) | 121 to 123 °C
COc1cc2cc3ncc(C#N)c(Nc4ccc(F)c(Cl)c4)c3cc2cc1OCCN1CCOCC1 | 205 to 210 °C
OCc1ccc(OCCCCl)cc1 | 65 °C
CCc1cc(NCc2ccc(-c3ccccc3C#N)cc2)n2nccc2n1 | 230 to 233 °C
CC(C)c1cn2cccc(C=O)c2n1 | 70 to 72 °C
C[C@@H](CC(=O)O)OC(=O)OCc1ccc([N+](=O)[O-])cc1 | 78 to 81 °C
CC1CCCN1c1nc(C#N)nc(Cl)c1/C(Br)=C(\Br)[Si](C)(C)C (centres undefined) | 166 to 168 °C
Cc1c(-c2ccccc2)n(-c2cc([N+](=O)[O-])ccc2Cl)c(-c2ccccc2)cc1=O | 277 to 279 °C
CCOCn1nccc1C(=O)c1ccc(OCC(=O)O)c(Cl)c1Cl | 148 to 149 °C
CC(=O)OC[C@@H]1CCCN1C(c1ccccc1)(c1ccccc1)c1ccccc1Cl | 102 to 104 °C
NS(=O)(=O)c1ccc(F)cc1 | 123 to 125 °C
CCN1CN(c2ccc(Cl)cc2)c2ncccc2C1=O | 100 to 101 °C
CCOC(=O)c1ncc2[nH]c3ccc(I)cc3c2c1C | 250 to 255 °C
CC1C(C)(C)c2ccc(C(=O)CCC(=O)O)cc2C1(C)C (centres undefined) | 161 °C

SMILES | melting point
Nc1cc(C(=O)O)cc(S(N)(=O)=O)c1Oc1cccc(C(F)(F)F)c1 | 270 °C
NS(=O)(=O)c1ccc(S(=O)(=O)N2CCC(=O)CC2)cc1Cl | 195 to 196 °C
Nc1nc(Nc2ccc3nc[nH]c3c2)sc1C(=O)c1cc(Cl)sc1Cl | > 300 °C
CC(C)N(CCCCOCC(=O)O)c1nc(-c2ccccc2)c(-c2ccccc2)nc1Cl | 136 to 138 °C
CC(C)ON=Cc1cc(-n2c(=O)cc(C(F)(F)F)[nH]c2=O)ccc1Cl | 191 to 193 °C
Cc1ccc(C(=O)N[C@H]2CC[C@H](CCN3CCC(c4cccc5c4CCO5)CC3)CC2)cn1 | 202 °C
CC(C)(Cc1c(Sc2ccccc2)c2cc(F)ccc2n1Cc1ccc(Cl)cc1)C(=O)O | 162 to 163 °C
CC(C)c1cc(O)cc(C(C)C)c1NC(=O)CN1CCN(CCSc2nc3ccccc3[nH]2)CC1 | 241 to 242 °C
CC(C)C(OC(=O)NC1(C(=O)O)CC1)OC(=O)C1CCCCC1 (centres undefined) | 156 to 158 °C
O=C(O)c1cccc(Oc2ccnc(Cl)c2)n1 | 183 °C
Cc1ccc2c(NCc3ccc(NC(=O)C4CCN(Cc5ccc(F)c(F)c5)CC4)cc3)nc(N(C)C)nc2c1 | 97 to 99 °C
Clc1ccc(-c2ccc(Br)cc2)nn1 | 201 to 203 °C
Cc1cccc2[nH]c(=O)n3ccnc3c12 | 308 to 310 °C
NC12CCCC(C1)C1CCC2C1 (centres undefined) | 111 to 113 °C
COc1cc2c(=O)c(S(C)=O)nn(C)c2cc1OC (centres undefined) | 262 to 264 °C
CCCOc1cccc(CO)c1I | 75 to 75.5 °C
CS(=O)(=O)Nc1ccc(CCBr)cc1 | 92 to 94 °C
O=C(Nc1ccccc1)C1Cc2cc(Br)cc3[nH]c(=O)c(=O)n1c23 (centres undefined) | > 300 °C
COC(=O)NCCc1cccc(C(=O)C=CN(C)C)c1 | 95 to 97 °C
O=C(NCc1cccc([N+](=O)[O-])c1)c1ccccc1 | 136 to 138 °C
COc1ccc(Nc2nccc(-c3cccnc3)n2)cc1 | 121 to 122 °C
O=c1cc(OCC2CCCCC2)cc[nH]1 | 256 to 260 °C
N#CCCNC(=O)c1cccc(-c2ccc3c(n2)C(Oc2ccc(Cl)cc2Cl)CC3)c1 (centres undefined) | 193 to 194 °C
CC(c1oc2ccccc2c(=O)c1-c1cccc(F)c1)n1nc(-c2ccc(N)cc2)c2c(N)ncnc21 (centres undefined) | 91 to 94 °C
CN1C(=O)CC[C@]2(C)c3ccc(-c4cccc(Cl)c4Cl)cc3CC[C@@H]12 | 131 to 134 °C
Cc1ccc(S(=O)(=O)N(c2ccc(Cl)cc2C#N)C(C)C)cc1 | 130 °C

SMILES | melting point
CCCCCCCCCCC[C@@H](O)CC(=O)OC | 42 to 43 °C
O=C1CNc2ncc(I)cc2N1Cc1c(Cl)cccc1Cl | > 200 °C
C[C@H]1[C@H](O[Si](C)(C)C(C)(C)C)[C@H](O)C(S(=O)(=O)c2ccccc2)=C[C@H](C)[C@H]1O[Si](C)(C)C(C)(C)C | 81 to 83 °C
Cc1nc(-c2cccnc2)sc1-c1ccnc(Nc2ccc(N3CCSCC3)cc2)n1 | 191 to 193 °C
COc1nc(OC)nc(Oc2cccc3c2C(=S)OC3C)n1 (centres undefined) | 177 to 178 °C
CN(C)C(=O)COc1cccc(C(F)(F)F)c1 | 88.5 to 89.5 °C
CC1(C)CCC(C)(C)c2cc(OCc3ccc(CN)cc3)ccc21 | 77 to 79 °C
CONS(=O)(=O)c1ccc(Cl)c(Cl)c1 | 146 to 147 °C
CN1C[C@@H](O)[C@H](Oc2ccccc2)C1 (relative stereo) | 89 to 90 °C
CC(=O)OCC(C)(C)c1ccc(S(=O)(=O)Nc2ncnc(Cl)c2-c2ccc(C)cc2)cc1 | 188 to 189 °C
COCC1CN(c2ccc(C3CC3)cc2)C(=O)O1 (racemic) | 58 to 60 °C
CC(C)c1cc2c(s1)Sc1ccccc1NC2=S | 210 °C
CC(C)Oc1cc(CCC(=O)NS(=O)(=O)C(C)C)n(Cc2ccc(Cl)cc2Cl)n1 | 135 to 136 °C
Cn1c(=O)c(-c2ccc(Cl)cc2Cl)cc2c3cc(-c4cc(N)n[nH]4)ccc3n(C)c21 | 284 to 286 °C
COC(=O)c1sc2nc(-c3ccccc3)cnc2c1N | 197 to 198 °C
CC(=O)Nc1ccc2c(c1)CCC1CC(=O)NN=C21 (centres undefined) | 284 °C
O=S1(=O)c2cccc3cccc(c23)N1CCCN1CCC(CC2C=Cc3ccccc32)CC1 (centres undefined) | 140 °C
O=C(OCCO)c1cc(-c2ccc(Cl)cc2)c[nH]1 | 128 to 130 °C
O=c1oc(C(F)(F)F)ccc1-c1ccc(F)cc1F | 98 to 100 °C
O=C(O)c1cc(OCc2ccccc2)cc([N+](=O)[O-])c1 | 157 to 158 °C
COc1ccc2c(c1)c(CCO)c(C)n2-c1ccnc2cc(Cl)ccc12 | 143 to 145 °C
COC(=O)Cn1c(C(=O)Nc2nc(-c3cc(Br)c(OC)cc3OC)c(CCC3CCCCC3)s2)cc2ccccc21 | 110 to 114 °C
CC(=O)N(C)c1ccnc2c(NC(=O)c3c(Cl)cccc3Cl)cccc12 | 227 to 230 °C
Clc1ccc2c(c1)C(c1ccccc1)Nc1nncn1-2 (centres undefined) | 242 to 244 °C
CCOCc1nc2c(N)nc3ccccc3c2n1CC(C)(C)CS(=O)(=O)NCc1ccc(OC)cc1 | 203 to 205 °C
O=CC1c2ccccc2C(C=O)c2c(Cl)cccc21 (centres undefined) | 144 to 146 °C

SMILES | melting point
Nc1ccccc1Sc1ccncc1 | 103 to 107 °C
CC(=O)Nc1ccc(-c2ccc3c(c2)CC(C(=O)O)O3)cc1 (centres undefined) | 274 to 276 °C
Cn1c(=O)[nH]c(=O)c2nc(-c3ccc(/C=C/C(=O)O)cc3)[nH]c21 | 300 °C
Cc1ccc(-c2[nH]c(C3CCCCC3)nc2C(=O)Nc2nccs2)cc1 | 199 to 200 °C
N#CCc1cc(CO)cs1 | 45 to 47 °C
CC(C)(C)OC(=O)Nc1ccc(N2CCNCC2)cc1 | 155 to 157 °C
CCCCc1n[nH]c(C(F)(F)CCC)n1 | 92 to 93 °C
N#Cc1ccc(C(=O)NCCCCn2cnc3c(N)nc4ccccc4c32)cc1 | 223 to 225 °C
Cc1cn(-c2cc(NC(=O)c3ccc(C)c(C#Cc4ccc(NC5CCC5)nn4)c3)cc(C(F)(F)F)c2)cn1 | 223 to 225 °C
CCOC(=O)C1CCc2cc3ccccc3n2C1=O (centres undefined) | 82 to 84 °C
Cc1ccc(-c2nccc3c(CCl)cccc23)cc1 | 120 °C
C[Si](C)(C)Sc1nnnn1-c1ccccc1 | 67 to 68 °C
CN1C(=O)SC(Cc2ccc(N)cc2)C1=O (centres undefined) | 91 to 92 °C
CC12CCC(=O)C=C1CCC1C2C(F)CC2(C)C(O)CCC12 (centres undefined) | 161 to 162 °C
COc1cc(NCCCCCCN2CCN(C(=NC#N)SC)CC2)c2nccc(C)c2c1 | 97 to 99 °C
CS(=O)(=O)Nc1ccc(OC[C@@H]2CO2)cc1 | 106 to 108 °C
Cc1cc(C)c2c(c1)C=C(C(=O)O)CC2 | 194 to 195 °C
Oc1nc(-c2ccc(F)cc2)sc1-c1ccccc1 | 231 to 233 °C
CCOC(=O)C=Cc1ccccc1NC(=O)c1ccc(OCCCCc2ccccc2)cc1 | 129 to 131 °C
Cc1cc(C2(c3ccc(O)cc3)c3ccccc3-c3ccccc32)cc(C)c1O | 90 to 105 °C
CCCc1nc2c(N)nc3ccccc3c2n1CCC(=O)N1CCOCC1 | 172 to 173 °C
C=CCOc1cc(Br)ccc1C(C)=NO | 115 °C
COCCc1nc2c(N)nc3ccccc3c2n1CCOCCN(C)C(=O)c1ccccc1 | 93.5 to 97 °C
Cc1nc2cc(NC(=O)c3cc4cc(F)ccc4n3Cc3cccc(F)c3)ccn2c1-c1ccccc1 | 217 to 218 °C
O=C(C=Cc1ccc(-c2ccc(Cl)cc2)cc1)Nc1ccc(CN2CCCCC2)cc1 | 265 to 270 °C
CC(C)CCNC(Nc1ccccc1)=C(C#N)C#N | 183 to 185 °C
